Reference: article PMC12298237 (Marine Drugs, 2025)
Where a SMILES comes first, the peptide text is derived from it. [ ]: non-standard residue; d: D form. The star is where a group is joined. Leu(ol) = CC(C)C[C@H](N)CO; dIva = CC[C@@](C)(N)C(=O)O; Octanoyl = CCCCCCCC(=O)*

Legend:
Format in all cases: cell-based, human
[1] = test system: DLD-1 cells; experiment: Cell cycle analysis by flow cytometry (PI); details: DLD-1, 24 h of exposure, in words
Description: (§1) Following treatment, cells were collected, washed, and fixed in 75% pre-chilled ethanol at −20 °C for 24 h. After fixation, cells were centrifuged, washed twice with cold PBS, and stained with propidium iodide (PI, 0.1 mg/mL) in the presence of RNase A (0.1 mg/mL) at 37 °C for 30 min. Cell cycle distribution was analyzed by flow cytometry (LSRFortessa, BD, Canton, MA, USA). To enhance the clarity of the results, cell populations were selectively gated using the ModFit LT 5.0 software.

[2] = test system: HT-29 cells; experiment: Cell cycle analysis by flow cytometry (PI); details: HT-29, 24 h of exposure, in words
Description: as §1

[3] = test system: phosphorylated ERK1/2 (p-ERK) in HT-29 cells; experiment: Western blot of phosphorylated ERK1/2; details: HT-29, 9 and 18 μM, 24 h
Description: (§2) Western blotting was performed as previously described. […] Cells were washed twice with PBS and lysed in RIPA buffer (Beyotime Biotechnology, Jiangsu, China) on ice for 30 min. Lysates were centrifuged at 12,000 rpm for 20 min at 4 °C, and the supernatant containing total protein was collected. Equal amounts of protein were separated by SDS-PAGE and transferred onto polyvinylidene fluoride (PVDF) membranes. Membranes were blocked with 5% non-fat milk at room temperature for 1 h, followed by incubation with the appropriate primary and secondary antibodies. Protein bands were visualized using the Omni-ECL Femto Light Chemiluminescence Kit (Epizyme, Shanghai, China) and imaged with the Amersham Imager 680 (Cytiva, Marlborough, MA, USA).

[4] = test system: phosphorylated ERK1/2 (p-ERK) in DLD-1 cells; experiment: Western blot of phosphorylated ERK1/2; details: DLD-1, 9 and 18 μM, 24 h
Description: as §2

[5] = test system: DLD-1 cells; experiment: Calcein-AM/PI staining assay; details: DLD-1, 18 μM, 0, 6, 12 and 18 h, fluorescence microscopy
Description: (§3) For the Calcein-AM/PI staining assay, DLD-1 and HT-29 cells were seeded in 24-well plates at 5 × 10^4 cells per well. […] After incubation for 0, 6, 12, and 18 h, cells were stained by using the calcein AM (MedChem Express (Monmouth Junction, NJ, USA), 5 μM) and propidium iodide (MedChem Express, 50 μg/mL). The cells were incubated in the dark at 37 °C for 30 min, followed by imaging with an inverted fluorescence microscope.

[6] = test system: HT-29 cells; experiment: Calcein-AM/PI staining assay; details: HT-29, 18 μM, 0, 6, 12 and 18 h, fluorescence microscopy
Description: as §3

[7] = test system: DLD-1 cells; experiment: Colony formation assay; details: DLD-1, 9 or 18 μM, two weeks, crystal violet, vs untreated control, n = 3
Description: (§4) For colony formation assays, DLD-1 and HT-29 cells were seeded into 6-well plates at a density of 800 cells per well. […] The culture medium was refreshed every four days. After two weeks of continuous culture, colonies were fixed with 4% paraformaldehyde for 15 min and subsequently stained with crystal violet solution (Yuanye, Shanghai, China) for 20 min. Colony formation was quantified using ImageJ 1.54g software.

[8] = test system: HT-29 cells; experiment: Colony formation assay; details: HT-29, 9 or 18 μM, two weeks, crystal violet, vs untreated control, n = 3
Description: as §4

`CCCCCCCC(=O)NCC(=O)N[C@@H](Cc1ccccc1)C(=O)N[C@@H](CC(C)C)C(=O)N[C@](C)(CC)C(=O)N[C@@H](C)C(=O)N[C@@H](CC(C)C)C(=O)N[C@H](CO)CC(C)C` [Compound 1, lipotrichaibol A] (Octanoyl-GFL[dIva]AL[Leu(ol)]) was tested. Which “proportion of cells in the G0/G1 phase” value [1] did it give?
Its value is “significant increase”.

What about the “proportion of cells in the G0/G1 phase” value [2] of the same compound?
Its value is “significant increase”.

What about the “levels of phosphorylated ERK1/2 (p-ERK)” value [3] of the same compound?
Its value is “significantly reduced”.

What about the “levels of phosphorylated ERK1/2 (p-ERK)” value [4] of the same compound?
The value was “significantly reduced”.

And the “cell proliferation and dead cells (Calcein-AM/PI staining)” value [5]?
Its value is “pronounced reduction in cell proliferation”.

And the “cell proliferation and dead cells (Calcein-AM/PI staining)” value [6]?
The value was “pronounced reduction in cell proliferation”.

And the “number of colony-forming cells” value [7]?
The value was “markedly reduced”.

What about the “number of colony-forming cells” value [8] of the same compound?
Its value is “markedly reduced”.
